Measured values from patent US20070112053A1, “Pharmaceutical compositions and methods using temozolomide and a protein kinase inhibitor” (priority 2005, published 2007).

Tested on: U87MG (glioblastoma) xenograft tumors
Assay: U87MG glioblastoma xenograft tumor growth in nude mice
Format: in vivo
Conditions: for inhibition of U87MG glioblastoma xenograft tumor growth: TMZ alone, ip Day 1-5
Method: The following human glioblastoma xenograft model may be employed to ascertain the efficacy of the formulations and methods described herein. Human glioblastoma cell U87MG are inoculated subcutaneously into female nude mice (age 4-6 wks). Xenograft tumor growth is followed by measuring the tumor size using a caliper. Once tumor size reaches about 100 mm3 (average), mice carrying the xenograft tumors are grouped and treated with different doses of the combination of TMZ and a PKC inhibitor (e.g., enzastaurin). Likewise, human glioblastoma cell U373 may be used to establish a xenograft model.
The combination of TMZ and a PKC inhibitor (e.g., enzastaurin) for treating a cell proliferative disorder was examined using a glioblastoma xenograft model. In particular, the glioblastoma model U87MG was used to evaluate the efficacy of PKC inhibitor enzataurin as a single agent compared to TMZ (Temodar®), a chemotherapeutic drug clinically approved for treating brain tumor, as a single agent. In addition, this study looked at the efficacy of the combination of TMZ with enzastaurin in comparison to the efficacy with either agent alone.
In brief, nude mice were inoculated with U87-MG glioblastoma cells and the resultant tumors treated with control, or various concentrations of TMZ, enzastaurin, or a combination of both TMZ and enzastaurin. More specifically, 150 female nude mice (strain NU/NU), aged 5-7 weeks old were purchased from Charles River Laboratory. Four million glioblastoma cells U87-MG were mixed 1:1 (volume:volume) with Matrigel (Cat. #354234, BD Biosciences) on ice and mixtures were inoculated subcutaneously to the flank of each mouse. Dosing was initiated when the tumors reached an average size of 90 mm^3. The dosing volume was 0.2 mL. Tumor size and body weight was measured two to three times per week. […] Note that there were 10 nude mice per dosing regimen.

| SMILES | inhibition of U87MG glioblastoma xenograft tumor growth (5 mpk qd) [%] | inhibition of U87MG glioblastoma xenograft tumor growth (10 mpk qd) [%] | inhibition of U87MG glioblastoma xenograft tumor growth (20 mpk qd) [%] | effect on tumor growth as single agent (enzastaurin alone, 37.5 or 75 mpk qd, po) |
| --- | --- | --- | --- | --- |
| Cn1nnc2c(C(N)=O)ncn2c1=O [TMZ, 3,4-dihydro-3-methyl-4-oxoimidazo[5,1-d]-as-tetazine-8-carboxamide] | 98 | 102 | 103 | – |
| Cn1cc(C2=C(c3cn(C4CCN(Cc5ccccn5)CC4)c4ccccc34)C(=O)NC2=O)c2ccccc21 [enzastaurin] | – | – | – | little effect on tumor growth |
